These results are taken from patent US12576083B2, “Combinational therapy of LSD1 inhibitors with P21 activators in the treatment of cancer” (Istituto Europeo di Oncologia S.r.l., priority 2017, dated 2026).

“Also recorded” adds a separate entry of the source.

Experiment [1] relates to MMC-38B and MMC-34 cells. Put plainly: Proliferation of MMC-38B and MMC-34 melanoma cells with shRNA and MC2580. In kind it is cell-based, human. The settings on record: MMC-38B and MMC-34, 6 days, rescued by p21 knock-down. The protocol:
FIG. 16A depicts relative proliferation of melanoma cells (MMC-38B and MMC-34) that were treated with p21-shRNA (“P21KD-DMSO”), scramble shRNA (“SCR-DMSO”), scramble shRNA plus LSD1 inhibitor MC2580 (“SCR-LSD1i”), or p21-shRNA plus MC2580 (“P21KD-LSD1i”). Data are presented as mean of triplicates±SD.
(§1) MMC-38B and MMC-34 cells were treated with p21-shRNA (“P21KD-DMSO”), scramble shRNA (“SCR-DMSO”), scramble shRNA plus LSD1 inhibitor (MC2580) (“SCR-LSD1i”), or p21-shRNA plus MC2580 (“P21KD-LSD1i”). Tubulin was used as a loading control.

For experiment [2], the system named is Acute promyelocytic leukemia (APL) NB4 cells. The experiment is described as follows: NB4 cells treated with MC2580: proliferation, Wright-Giemsa staining, serial replating CFU assay. In kind it is cell-based. To be noted: 2 μM, 6 days, DMSO control. The protocol: FIGS. 1A-1C. […] (FIG. 1A) Relative proliferation of NB4 APL cells treated with MC2580 ([…]) and RA ([…]) for indicated times (DMSO serves as control). (FIG. 1B) Representative light micrographs show Wright-Giemsa staining of NB4 cell after treatment for 6 days. (DMSO serves as a control). (FIG. 1C) Analysis of the proliferative potential of treated NB4 cells by serial replating assay. (DMSO serves as control). (RA high(h)=retinoic acid, 1 μM, LSD1i=LSD1 inhibitor=MC2580).
Acute promyelocytic leukemia (APL) NB4 cells were treated with 2 μM LSD1 inhibitor MC2580, 1 μM retinoic acid (RA), and DMSO (control) for 6 days. The proliferation of the treated cells were quantified before treatment and during each of the 6 days (FIG. 1A). The treated cells were analyzed under light micrographs using Wright-Giemsa staining (FIG. 1B). The proliferation potential of the treated cells were analyzed by serial replating and Colony-Forming Unit (CFU) Assay (FIG. 1C).

For a further experiment, the system named is UF1 cells. Put plainly: Cell cycle analysis of UF1 cells. In kind it is cell-based. To be noted: 1 week treatment. The method, then:
Acute promyelocytic leukemia (APL) UF1 cells were treated with 2 μM LSD1 inhibitor MC2580, 10 nM retinoic acid (RA), 2 μM LSD1 inhibitor MC2580 plus 10 nM RA, and DMSO (control) for 7 days. The proliferation of the treated cells were quantified before treatment and post-treatment from each of day 2 to day 7 (FIG. 2A). The cells following the 1 week treatment were analyzed under light micrographs using Wright-Giemsa staining (FIG. 2B). The LSD1-inhibition induced expression of CD11b gene expression were analyzed. The mRNA of CD11b of the treated cells under each condition were normalized using GAPDH (FIG. 2C). PML-RARα protein level in the treated cells was analyzed by immune-blotting using an antibody against PML-RARα. Immuno-blotting of tubulin was used as loading control. (FIG. 2D). […] Cell cycle analysis were performed following the 1 week treatment. […] (FIG. 2E).
UF1 cells were treated with p21-shRNA, scramble shRNA (SCR), LSD1 inhibitor MC2580, p21-shRNA plus MC2580, scramble shRNA (SCR) plus MC2580. Non-infected (NI) UF1 cells were included as control. The proliferation of the treated cells were quantified before treatment and post-treatment from each of day 2 to day 7 (FIG. 5C). The cells following the 1 week treatment were analyzed under light micrographs using Wright-Giemsa staining (FIG. 5D). Cell cycle analysis were performed following the 1 week treatment. […] (FIG. 5E).

For experiment [3], the system named is MMC-38B and MMC-34 cells. Put plainly: Cell cycle analysis of MMC-38B and MMC-34 melanoma cells. In kind it is cell-based, human. To be noted: MMC-38B and MMC-34, rescued by p21 knock-down. The protocol: FIG. 16B depicts cell-cycle status of melanoma cells analyzed in FIG. 16A.
as §1

The next experiment relates to Kasumi cells. Put plainly: Cell cycle analysis of Kasumi cells. The experiment is classed as cell-based. The settings on record: 1 week treatment. The protocol: (§2) Kasumi cells were treated with p21-shRNA, scramble shRNA (SCR), LSD1 inhibitor MC2580, p21-shRNA plus MC2580, scramble shRNA (SCR) plus MC2580. Non-infected (NI) Kasumi cells were included as control. The proliferation of the treated cells were quantified before treatment and post-treatment from day 2, day 4, and day 7 (FIG. 7C). The cells following the 1 week treatment were analyzed under light micrographs using Wright-Giemsa staining (FIG. 7D). Cell cycle analysis were performed following the 1 week treatment.

For experiment [4], the system named is p21. The experiment is described as follows: Western-blot of p21 in Kasumi cells. The experiment is classed as cell-based.
Source text: FIGS. 7A-7F. […] (FIG. 7C) Relative proliferation of Kasumi cells infected with SCR (control) or p21 shRNA treated with MC2580. (FIG. 7D) Representative light micrograph show Wright-Giemsa staining of Kasumi cells after 1 week treatment with indicated inhibitors. (FIG. 7E) summary of cell-cycle status of Kasumi cells following 1 week treatment with indicated inhibitors. (FIG. 7F) Immunoblot of P21 in MC2580-treated Kasumi cells. (SCR=Scramble shRNA, NI=Not Infected, LSD1i=LSD1 inhibitor=MC2580).
as §2

The test system of the next experiment is NB4 cells. The experiment is described as follows: NB4 cells treated with HDAC inhibitors with or without MC2580: proliferation, staining, cell cycle analysis. The experiment is classed as cell-based. To be noted: versus untreated control cells (Scr-DMSO), 1 week treatment. The text has this: FIGS. 10A-10D. […] (FIG. 10A) Relative proliferation of NB4 cells infected with SCR (control) or p21 shRNA and treated with HDAC inhibitor and/or MC2580. (FIG. 10B and FIG. 10C) Representative light micrograph show Wright-Giemsa staining of NB4 cells infected with SCR (control) or p21 shRNA and treated with HDAC inhibitor and/or MC2580. (FIG. 10D) Summary of cell-cycle status of NB4 cells infected with SCR (control) or p21 shRNA and treated with HDAC inhibitor and/or MC2580. (SCR=Scramble shRNA, NI=Not Infected, LSD1i=LSD1 inhibitor=MC2580).
NB4 cells were treated with HDAC inhibitors, trichostatin A (TSA) and suberoylanilide hydroxamic acid (SAHA), in combination with p21-shRNA or scramble shRNA (SCR), with or without LSD1 inhibitor MC2580. NB4 cells with p21 knock-down without HDAC inhibitor treatment (p21KD-DMSO), NB4 cells without p21 knock-down and without HDAC inhibitor treatment (Scr-DMSO) were included as control. The proliferation of the treated cells were quantified before treatment and post-treatment from day 2, day 4, and day 6 (FIG. 10A). The treated cells were analyzed under light micrographs using Wright-Giemsa staining (FIG. 10B and FIG. 10C). Cell cycle analysis were performed following the 1 week treatment.

For experiment [5], the system named is p21. The experiment is described as follows: p21 expression (immunoblotting) in MMC-38B and MMC-34 melanoma cells. In kind it is cell-based, human. To be noted: MMC-38B and MMC-34, rescued by p21 knock-down. The method, then:
FIG. 16C depicts the p21 expression level in melanoma cells analyzed in FIG. 16A.
as §1

Consider `NC1CC1c1ccc(NC(=O)C(Cc2ccccc2)NC(=O)OCc2ccccc2)cc1` (centres unmarked) [MC2580], for which, in the experiment on MMC-38B and MMC-34 cells [1], the “cell growth of human primary melanoma cells” value is on record as “cell growth inhibition”. The “sensitivity of NB4 cells to LSD1 inhibitor” value in experiment [2] is “resistant to LSD1 inhibition; also recorded: largely insensitive”. Besides, the “UF1 cells arrested at the G0/G1 phase” value in the experiment on UF1 cells is “More UF1 cells were arrested at the G0/G1 phase”. The “cell cycle of human primary melanoma cells” value in the experiment with MMC-38B and MMC-34 cells [3] is given as “cell cycle arrest”. Also, the “Kasumi cells arrested at the G0/G1 phase” value in the experiment with Kasumi cells is on record as “More Kasumi cells were arrested at the G0/G1 phase”. Besides, the “p21 protein level in Kasumi cells” value with p21 [4] is “increased”. Further, in the experiment with NB4 cells, the “NB4 cells arrested at the G0/G1 phase, LSD1 inhibitor alone” value is recorded as “More NB4 cells were arrested at the G0/G1 phase”. For the same molecule, the “p21 expression in human primary melanoma cells” value in the experiment with p21 [5] is given as “increase of p21 expression”.
